This is an account of results in PubChem BioAssay (NCI).

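96-well plates; 48 h exposure; 5 concentrations. Endpoints by linear interpolation between flanking doses. Not reached: highest tested concentration assigned. At the TGI there is no net growth.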 Peptide text beside a SMILES is read from it. * marks the point of attachment. X26 = Clc1c(Cl)c(Cl)c(O*)c(Cl)c1Cl; Boc = CC(C)(C)OC(=O)*; OBn = c1ccc(CO*)cc1; Bn = c1ccc(C*)cc1

Among the test systems are HL-60(TB) leukemia; OVCAR-4 ovarian; OVCAR-5 ovarian; SF-295 CNS; SK-MEL-2 melanoma; SK-OV-3 ovarian; SN12C renal; UO-31 renal; SNB-75 CNS; HCC-2998 colon.
Experiment in all cases: growth of human tumour cells (NCI), 48 h

Regarding `O=P(OCc1ccccc1)(OCc1ccccc1)C(O)/C=C/c1ccccc1` (stereo not drawn), the TGI in the test on HL-60(TB) leukemia is 44.3 µM; in the test on OVCAR-4 ovarian, 56.1 µM; with OVCAR-5 ovarian it was > 100 µM; with SF-295 CNS, 49.4 µM; in the test on SK-MEL-2 melanoma it was 43.8 µM; in the test on SK-OV-3 ovarian it was > 100 µM. The TGI in the test with SN12C renal was 39 µM; in the test on UO-31 renal, 80.3 µM.

For `COc1cc(OC)cc(Oc2nc3cc(F)c(F)cc3nc2-c2ccccc2)c1`, the TGI with HL-60(TB) leukemia, in the test with OVCAR-4 ovarian, with OVCAR-5 ovarian, in the test on SF-295 CNS, with SK-MEL-2 melanoma and with SK-OV-3 ovarian was > 100 µM each time. Also, the TGI in the test with SN12C renal, in the test with SNB-75 CNS and with UO-31 renal was > 100 µM throughout.

Consider `C[N+]1(CCN=C=NC2CCCCC2)CCOCC1`, for which the TGI in the test on HL-60(TB) leukemia, in the test on OVCAR-4 ovarian, in the test on OVCAR-5 ovarian, in the test with SF-295 CNS, with SK-MEL-2 melanoma and in the test with SK-OV-3 ovarian was > 100 µM throughout. The TGI with SN12C renal, with SNB-75 CNS and in the test with UO-31 renal was > 100 µM throughout.

On to `NCCN(CCN(C(=O)Nc1ccccc1)c1ccccc1)C(=O)Nc1ccccc1`, for which the TGI in the test with HCC-2998 colon worked out at 44.3 µM; in the test on HL-60(TB) leukemia it was 74.8 µM; in the test with OVCAR-5 ovarian it was 45.6 µM; in the test with SF-295 CNS it was 36.4 µM; in the test with SK-MEL-2 melanoma, 45.2 µM; in the test with SK-OV-3 ovarian, 44.9 µM. For the same compound, the TGI stood at 69.7 µM with SN12C renal, 45.4 µM with SNB-75 CNS and 39.3 µM in the test on UO-31 renal.

As for `C[C@H](c1ccccc1)N1C(=O)[C@@H](OCc2ccccc2)[C@H]1[C@H](COC(=O)COCc1ccccc1)OCc1ccccc1`, the TGI with OVCAR-5 ovarian, in the test on SF-295 CNS, with SK-MEL-2 melanoma, in the test on SK-OV-3 ovarian, with SN12C renal and in the test on SNB-75 CNS was > 100 µM in each case. Moreover, in the test on UO-31 renal, the TGI is > 100 µM.

In the case of `CCCCCCCCCCCCOCCOCCOCCOCCOCCOCC(=O)NC(Cc1ccccc1)C(=O)Oc1ccc([N+](=O)[O-])cc1` (stereo not drawn), the TGI was > 100 µM with HL-60(TB) leukemia; > 100 µM in the test on OVCAR-4 ovarian; > 100 µM in the test with OVCAR-5 ovarian; > 100 µM with SF-295 CNS; 47.9 µM in the test with SK-MEL-2 melanoma; > 100 µM with SK-OV-3 ovarian. Further, the TGI in the test on SNB-75 CNS and in the test with UO-31 renal was > 100 µM in each case.

`N#Cc1nc(C2CCC(=O)O2)oc1N` (stereo not drawn): the TGI in the test on HL-60(TB) leukemia, in the test with OVCAR-5 ovarian, in the test on SF-295 CNS, with SK-MEL-2 melanoma, in the test on SK-OV-3 ovarian and with SN12C renal was > 100 µM in each case. In addition, the TGI in the test on SNB-75 CNS and in the test on UO-31 renal was > 100 µM throughout.

For the compound `Cc1cc(OCc2nnc3sc(NC(=O)c4ccccc4)nn23)ccc1Cl`, the TGI with HCC-2998 colon was 90.2 µM; in the test with HL-60(TB) leukemia, > 100 µM; with OVCAR-4 ovarian, > 100 µM; in the test on OVCAR-5 ovarian, > 100 µM; with SF-295 CNS it was > 100 µM; in the test with SK-MEL-2 melanoma, 80.5 µM. In addition, the results for the TGI with SK-OV-3 ovarian, in the test with SN12C renal and in the test on UO-31 renal were > 100 µM, > 100 µM and 35.2 µM, respectively.

On to `CC1(C)N=C(N)N=C(N)N1c1cccc(OCc2cccc(N)c2)c1`, for which the TGI was 47.5 µM in the test with HL-60(TB) leukemia; > 100 µM in the test on OVCAR-4 ovarian; > 100 µM in the test with OVCAR-5 ovarian; > 100 µM in the test on SF-295 CNS; > 100 µM in the test on SK-MEL-2 melanoma; > 100 µM in the test with SK-OV-3 ovarian. In addition, the TGI with SN12C renal, with SNB-75 CNS and in the test on UO-31 renal was > 100 µM throughout.

Consider `O=C1N/N=C\c2ccc(cc2)OCc2cccc(n2)COc2ccc(cc2)/C=N\NC1=O`, for which the TGI in the test with HL-60(TB) leukemia, in the test with OVCAR-4 ovarian, in the test with OVCAR-5 ovarian, in the test with SF-295 CNS, with SK-MEL-2 melanoma and in the test with SK-OV-3 ovarian was > 25 µM throughout. Besides, the TGI with SN12C renal, in the test on SNB-75 CNS and in the test with UO-31 renal was > 25 µM in each case.

As to `CC(C)CC(NC(=O)C(CCC(=O)OCc1ccccc1)NC(=O)OC(C)(C)C)C(=O)NC(COCc1ccccc1)C(=O)NC(Cc1ccccc1)C(=O)Oc1c(Cl)c(Cl)c(Cl)c(Cl)c1Cl` (stereo not drawn) (Boc-E(OBn)LS(Bn)F-X26; configuration not given here), the TGI with OVCAR-4 ovarian is > 100 µM; in the test on OVCAR-5 ovarian, 56.7 µM; with SF-295 CNS it was 68.1 µM; with SK-MEL-2 melanoma, 69 µM; in the test on SK-OV-3 ovarian, 83.8 µM; with SN12C renal, 90.5 µM. Moreover, the values for the TGI with SNB-75 CNS and in the test with UO-31 renal were > 100 µM and 50.2 µM, respectively.

With `N#Cc1nc(CCCN2C(=O)c3ccccc3C2=O)oc1N`, the TGI in the test with HCC-2998 colon, in the test with OVCAR-4 ovarian, with OVCAR-5 ovarian, with SF-295 CNS, with SK-MEL-2 melanoma and with SK-OV-3 ovarian was > 100 µM in each case. Further, the TGI in the test with SN12C renal and in the test on UO-31 renal was > 100 µM in each case.

Take `CN(C)CCCNc1cc(O)c2c(c1O)C(=O)c1ccccc1C2=O`: the TGI amounted to 25.4 µM in the test on OVCAR-4 ovarian; 33.7 µM with OVCAR-5 ovarian; 25.9 µM in the test with SF-295 CNS; 35.7 µM in the test with SK-MEL-2 melanoma; 24.8 µM with SK-OV-3 ovarian; 16.5 µM in the test with SN12C renal. Also, in the test on UO-31 renal, the TGI came out at 11.9 µM.

For `O=c1c(-c2ccccc2)c(SCCN2CCCCCC2)n(-c2ccccc2)c(=S)n1-c1ccccc1`, the TGI in the test with HCC-2998 colon is 12.9 µM; in the test on HL-60(TB) leukemia, 46.9 µM; in the test with OVCAR-4 ovarian, 53.6 µM; in the test on OVCAR-5 ovarian, 44.3 µM; with SF-295 CNS it was > 100 µM; in the test on SK-OV-3 ovarian it was > 100 µM. The TGI in the test on SNB-75 CNS is > 100 µM.

`COc1ccc(OC/C(N=Cc2ccncc2)=N/NC(=O)c2ccncc2)cc1`: the TGI in the test on HCC-2998 colon, with HL-60(TB) leukemia, in the test with OVCAR-4 ovarian, in the test with OVCAR-5 ovarian, with SF-295 CNS and in the test with SK-MEL-2 melanoma was > 100 µM in each case. Also, the TGI in the test on SK-OV-3 ovarian and in the test on SN12C renal was > 100 µM in each case.
